From US20070033677A1, “Plant sHSP gene bidirectional promoter and uses thereof” (National Taiwan University, priority 2005, published 2007)

What was measured:
[1] = system: bidirectional promoter of SEQ ID NO:5; conditions: 5% ethanol treatment; control coleoptiles under 28° C.; FIG. 3B
Experimental: (§1) The coleoptile of a etiolated rice seedling was cut from embryonic root and positioned on the middle of a 10-cm Petri dish containing MS salts supplemented with 0.6% (w/v) agarose and 3% (w/v) sucrose. The mixture (in a 1:1 molar ratio) of a test DNA construct and a maize ubiquitin-luciferase internal control construct were coated onto the gold particles as follows: under continuous vortexing, the following were added in order to each […] of 3 mg gold particles (Shen et al., 1996): 5 μL of DNA (1 μg DNA), 10 μL of 2.5 M CaCl2, and 4 μL of 0.1 M spermidine (free-based, tissue-culture grade). Gold microcarriers (1.6-μm particle size, 30 mg) in a microcentrifuge tube were vortexed with […] 70% (v/v) ethanol for 3˜5 minutes and kept till precipitation for about 15 minutes. Then, after centrifuging for 5 seconds, the supernatant was discarded and washed three times with 1 ml of sterile de-ionized water. The gold particles were resuspended in 500 μL 50% (w/v) glycerol, and then dispensed in 50-μL aliquots (3 mg/50 μL) kept in −20° C. The gold particles coated with DNA were pelleted in an bench-top Eppendorf centrifuge at maximum speed for 5 seconds, discarded the supernatant, washed once with 70% (v/v) ethanol following by absolute ethanol, and resuspended in 20 μL absolute ethanol. […]

[2] = system: Oshsp17.3 promoter; assay: Transient expression GUS activity assay, Oshsp17.3 promoter::GUS construct bombarded to rice coleoptiles; type: cell-based, Rice (Oryza sativa L. cv. Tainung No. 67); conditions: 5 mM Aze, 4 hours treatment; GUS normalized against luciferase internal control; FIG. 3A
Experimental: as §1

[3] = system: Oshsp18.0 promoter; assay: Transient expression GUS activity assay, Oshsp18.0 promoter::GUS construct bombarded to rice coleoptiles; type: cell-based, Rice (Oryza sativa L. cv. Tainung No. 67); conditions: 5 mM Aze, 4 hours treatment; GUS normalized against luciferase internal control; FIG. 3A
Experimental: as §1

Row | SMILES | expression of reporter gene (GUS staining) [1] | induction of promoter (normalized GUS activity) [2] | induction of promoter (normalized GUS activity) [3]
1 | CCO [ethanol] | much more amount of reporter gene |  | 
2 | O=C(O)C1CCN1 (stereo not drawn) [Aze] |  | at least 7 fold | at least 7 fold
